Measurements reported in patent publication US10676458B2, “Antidiabetic bicyclic compounds” (Merck Sharp & Dohme Corp., priority 2016, dated 2020).

What follows are molecules tested against human GPR40 (Homo sapiens (Human), UniProt O14842) (assay: Inositol Phosphate Turnover (IP1) Assay). Details: HEK cells stably expressing human GPR40; 60 min incubation; CisBio IP-One kit.
Format: cell-based
Description: Human GPR40 stable cell-lines were generated in HEK cells. The expression plasmids were transfected using lipofectamine (Life Technologies) following manufacturer's instructions. Stable cell-lines were generated following drug selection and single cell cloning.
The assay was performed in 384-well format. HEK cells stably expressing human GPR40 were plated at 7500 cells per well in growth medium (DMEM/10% fetal calf serum). Cell plates were then incubated 16 hours at 37 degrees in a 5% CO2 incubator. Measurement of Inositol Phosphate Turnover (IP1) was performed using the CisBio IP-One kit (Part number 62IPAPEB). After the 16 hour incubation, the growth media was removed by centrifugation using the BlueWasher (AusWasher GUI Ver. v1.0.1.8) Protocol #21-“Light Dry” and 10 ul of stimulation buffer (prepared as described in the kit) was added to each well. In a separate plate, compounds were diluted in DMSO (200-fold over the final concentration in the assay well) and 50 nl was acoustically transferred to the appropriate well in the assay cell plate. The plates were then incubated for 60 minutes at 37 degrees in a 5% CO2 incubator. 10 ul of detection buffer (also prepared as described in the IP-One kit) was added to each well and the plates were incubated at room temperature for 60 minutes in the dark. The plates were then read in a Perkin Elmer EnVision or equivalent reader able to measure FRET. Fluorescent ratio of emission at 665 and 620 nm was then converted to IP1 concentration by back calculating from an IP1 standard curve prepared at the time of the assay. Data was normalized to % activity using a reference compound and EC50s determined using a standard 4-paramter fit.

Sequence of human GPR40 (O14842 whole entry): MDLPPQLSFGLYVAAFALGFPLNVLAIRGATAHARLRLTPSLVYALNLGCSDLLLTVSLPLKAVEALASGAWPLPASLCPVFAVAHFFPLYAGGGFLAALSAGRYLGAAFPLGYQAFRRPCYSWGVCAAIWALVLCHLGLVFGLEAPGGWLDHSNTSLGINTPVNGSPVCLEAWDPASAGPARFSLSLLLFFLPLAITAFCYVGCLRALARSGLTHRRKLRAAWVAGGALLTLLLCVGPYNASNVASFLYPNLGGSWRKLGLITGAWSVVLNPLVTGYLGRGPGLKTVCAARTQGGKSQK

Going from C[C@H](C(=O)O)C(c1ccc2c(c1)N(C)C(C1CCN(Cc3cc(C(F)(F)F)ccc3C(F)(F)F)CC1)CO2)C1CC1 (single isomer, unassigned) [Example 4, Sodium (2S,3S)-3-((R or S)-3-(1-(2,5-bis(trifluoromethyl)benzyl)piperidin-4-yl)-4-methyl-3,4-di-hydro-2H-benzo[b][1,4]oxazin-6-yl)-3-cyclopropyl-2-methylpropanoate] to C[C@H](C(=O)O)[C@H](c1ccc2c(c1)N(C)C(C1CCN(Cc3cc(C(F)(F)F)ccc3C(F)(F)F)CC1)CO2)C1CC1 (single isomer, unassigned) [Example 5, Sodium (2S,3S)-3-((S or R)-3-(1-(2,5-bis(trifluoro-methyl)-benzyl)piperidin-4-yl)-4-methyl-3,4-dihydro-2H-benzo[b]-[1,4]oxazin-6-yl)-3-cyclopropyl-2-methyl propanoate], the EC50 falls from 4700 nM to 2100 nM (2.2-fold).

Compared with C[C@H](C(=O)O)[C@H](c1ccc2c(c1)N(C)C(C1CCN(Cc3cc(C(F)(F)F)ccc3C(F)(F)F)CC1)CC2)C1CC1 (single isomer, unassigned) [Example 8, (2S,3R)-3-((R or S)-2-(1-(2,5-bis(trifluoromethyl)benzyl)piperidin-4-yl)-1-methyl-1,2,3,4-tetrahydroquinolin-7-yl)-3-cyclopropyl-2-methylpropanoic acid], C[C@H](C(=O)O)[C@H](c1ccc2c(c1)NC(C1CCN(Cc3cc(C(F)(F)F)ccc3C(F)(F)F)CC1)CC2)C1CC1 (single isomer, unassigned) [Example 7, Sodium (2S,3R)-3-((S or R)-2-(1-(2,5-bis(tri-fluoromethyl)-benzyl)-piperidin-4-yl)-1,2,3,4-tetrahydroquin-olin-7-yl)-3-cyclo-propyl-2-methyl propanoate] is 4.4-fold lower in EC50: 439 nM for the first, 99 nM for the second. The second is the more potent here.

First: C[C@H](C(=O)O)[C@H](c1ccc2c(c1)NC(C1CCN(Cc3cc(C(F)(F)F)ccc3C(F)(F)F)CC1)CO2)C1CC1 (single isomer, unassigned) [Example 2, Sodium (2S,3S)-3-((R or S)-3-(1-(2,5-Bis(trifluoromethyl)-benzyl)piperidin-4-yl)-3,4-dihydro-2H-benzo[b][1,4]oxazin-6-yl)-3-cyclopropyl-2-methyl propanoate]
Second: C[C@H](C(=O)O)[C@H](c1ccc2c(c1)NC(C1CCN(Cc3cc(C(F)(F)F)ccc3C(F)(F)F)CC1)CC2)C1CC1 (single isomer, unassigned) [Example 6, Sodium (2S,3R)-3-((R or S)-2-(1-(2,5-bis(trifluoromethyl)benzyl)piperidin-4-yl)-1,2,3,4-tetrahydroquinolin-7-yl)-3-cyclopropyl-2-methylpropanoate]
The EC50 of the first is 11-fold higher: 388 nM for the first, 35 nM for the second.

First: C[C@H](C(=O)O)[C@H](c1ccc2c(c1)NC(C1CCN(Cc3cc(C(F)(F)F)ccc3C(F)(F)F)CC1)CO2)C1CC1 (single isomer, unassigned) [Example 3, Sodium (2S,3R)-methyl 3-((S or R)-3-(1-(2,5-bis(trifluoro-methyl)-benzyl)-piperidin-4-yl)-3,4-dihydro-2H-benzo[b]-[1,4]oxazin-6-yl)-3-cyclopropyl-2-methylpropanoate]
Second: C[C@H](C(=O)O)[C@H](c1ccc2c(c1)N(C)C(C1CCN(Cc3cc(C(F)(F)F)ccc3C(F)(F)F)CC1)CC2)C1CC1 (single isomer, unassigned) [Example 9, (2S,3R)-3-((S or R)-2-(1-(2,5-bis(trifluoromethyl)-benzyl)piperidin-4-yl)-1-methyl-1,2,3,4-tetrahydroquinolin-7-yl)-3-cyclopropyl-2-methyl propanoic acid]
The EC50 of the first is 2.2-fold higher: 642 nM for the first, 289 nM for the second. The second is the more potent here.

Going from COc1ccc(F)c(-c2ccc(C3COc4ccc([C@H](C5CC5)[C@H](C)C(=O)O)cc4N3)cc2)c1 (single isomer, unassigned) [Example 17, Sodium (2S,3R)-3-cyclopropyl-3-((R or S)-3-(2′-fluoro-5′-methoxy-[1,1′-biphenyl]-4-yl)-3,4-dihydro-2H-benzo[b][1,4]oxazin-6-yl)-2-methyl propanoate] to COc1ccc(F)c(-c2ccc(C3CCc4ccc([C@H](C5CC5)[C@H](C)C(=O)O)cc4N3)cc2)c1 (single isomer, unassigned) [Example 12, (2S,3R)-3-cyclopropyl-3-((S or R)-2-(2′-fluoro-5′-methoxy-[1,1′-biphenyl]-4-yl)-1,2,3,4-tetrahydroquinolin-7-yl)-2-methylpropanoic acid], the EC50 falls from 10 nM to 0.2 nM (50-fold).

First: C[C@H](C(=O)O)[C@H](c1ccc2c(c1)CN(C1CCN(Cc3cc(C(F)(F)F)ccc3C(F)(F)F)CC1)CC2)C1CC1 [Example 1, (2S,3R)-3-(2-(1-(2,5-bis(Trifluoromethyl)benzyl)piperidin-4-yl)-1,2,34-tetrahydroisoquinolin-7-yl)-3-cyclopropyl-2-methylpropanoic acid]
Second: COc1ccc(F)c(-c2ccc(C3CCc4ccc([C@H](C5CC5)[C@H](C)C(=O)O)cc4N3)cc2)c1 (single isomer, unassigned) [Example 11, Sodium (2S,3R)-3-cyclopropyl-3-((R or S)-2-(2′-fluoro-5′-methoxy-[1,1′-biphenyl]-4-yl)-1,2,3,4-tetrahydroquinolin-7-yl)-2-methylpropanoate]
The EC50 of the first is 770-fold higher: 611 nM for the first, 0.79 nM for the second.

Going from COc1ccc(F)c(-c2ccc(C3CCc4ccc([C@H](C5CC5)[C@H](C)C(=O)O)cc4N3C)cc2)c1 (single isomer, unassigned) [Example 14, (2S,3R)-3-cyclopropyl-3-((R or S)-2-(2′-fluoro-5′-methoxy-[1,1′-biphenyl]-4-yl)-1-methyl-1,2,3,4-tetrahydroquinolin-7-yl)-2-methylpropanoic acid] to COc1ccc(F)c(-c2ccc(C3COc4ccc([C@H](C5CC5)[C@H](C)C(=O)O)cc4N3C)cc2)c1 (single isomer, unassigned) [Example 21, Sodium (2S,3R)-3-cyclopropyl-3-((S or R)-3-(2′-fluoro-5′-methoxy-[1,1′-biphenyl]-4-yl)-4-methyl-3,4-dihydro-2H-benzo[b][1,4]oxazin-6-yl)-2-methyl propanoate], the EC50 rises from 1 nM to 12 nM (12-fold). The first is the more potent here.

First: COc1ccc(F)c(-c2ccc(C3CCc4ccc([C@H](C5CC5)[C@H](C)C(=O)O)cc4N3C)cc2)c1 (single isomer, unassigned) [Example 15, (2S,3R)-3-cyclopropyl-3-((S or R)-2-(2′-fluoro-5′-methoxy-[1,1′-biphenyl]-4-yl)-1-methyl-1,2,3,4-tetrahydroquinolin-7-yl)-2-methylpropanoic acid]
Second: COc1ccc(F)c(-c2ccc(C3COc4ccc([C@H](C5CC5)[C@H](C)C(=O)O)cc4N3C)cc2)c1 (single isomer, unassigned) [Example 20, Sodium (2S,3R)-3-cyclopropyl-3-((R or S)-3-(2′-fluoro-5′-methoxy-[1,1′-biphenyl]-4-yl)-4-methyl-3,4-dihydro-2H benzo-[b][1,4]oxazin-6-yl)-2-methyl propanoate]
The EC50 of the first is 15-fold higher: 12 nM for the first, 0.8 nM for the second. The second is the more potent here.

COc1ccc(F)c(-c2ccc(C3COc4ccc([C@H](C5CC5)[C@H](C)C(=O)O)cc4N3)cc2)c1 (single isomer, unassigned) [Example 18, Sodium (2S,3R)-3-cyclopropyl-3-((S or R)-3-(2′-fluoro-5′-methoxy-[1,1′-biphenyl]-4-yl)-3,4-dihydro-2H-benzo[b][1,4]oxazin-6-yl)-2-methyl propanoate] showed an EC50 of 0.8 nM.
